In article PMC3263612, “Development of an Oral Form of Azacytidine: 2′3′5′Triacetyl-5-Azacytidine” (Chemotherapy Research and Practice, 2011):
Values after ≈ are worked out from the molar mass of the structure shown.

What was measured:
[1] = Drug stability at pH 1, 3, 5 and 7.4 (LC/MS/MS); assay type: physicochemical; conditions: throughout the pH range, maximum stability at pH 1; data not shown
Method: ACT and TAC stabilities were determined after incubation at pH1 (2% Phosphoric acid), pH3 (0.1% Formic Acid), pH5 (K3PO4), and pH7.4 (Dulbecco's PBS). 100 ng of each compound was resuspended in 1.2 mL total volume, and 200 μL samples taken at 1, 3, 6, 29, and 48 hr. Each pH point was repeated 6 times in 2 dram vials with Teflon-lined screw caps at room temperature. Samples were extracted by solid-phase extraction using 100 ng decitabine as an internal standard and analyzed by tandem mass spectroscopy as described above.

[2] = system: L1210 lymphocytic leukemia; experiment: In vivo L1210 lymphocytic leukemia model; design: species or system BDF1 mice
Method: The in vivo L1210 lymphocytic leukemia model in C57BL/6 × DBA/2 F1(BDF1) female mice was used to evaluate the in vivo antiproliferative effect of TAC. L1210 cells were carried in BDF1 mice by weekly i.p. (intraperitoneal) passages. Leukemia cells from ascites fluid were diluted appropriately in […] medium and injected i.p. (1×10^5 cells/0.1 mL/mouse) into recipient mice. A daily oral administration of TAC (38 mg/kg via oral gavage) or ACT (25 mg/kg administered i.p.) diluted in PBS was given to leukemic BDF1 mice starting 24 hours from the inoculation of L1210 cells for a total of 5 days. Compounds were prepared fresh daily. A group of untreated leukemic mice received sterile water for injections and served as controls.

[3] = Pharmacokinetics and metabolism of TAC in mice; assay type: in vivo, C57/BL6 mice; conditions: ACT 25 mg/kg i.v., analyte ACT
Method: To monitor the in vivo absorption, distribution, and metabolism of TAC, a highly sensitive LC/MS/MS analytical method was developed that allows the quantitation of concentrations as low as 10 ng/mL of TAC and its metabolites. The samples were prepared by adding 200 μL of plasma to 400 μL of cold acetonitrile, vortexed, and centrifuged at 14,000 rpm for 10 minutes. The supernatant was placed into a 10 × 75 mm glass test tube and evaporated to 50 μL under nitrogen at 37°C. The residue was then diluted with 1 mL of 2% phosphoric acid and vortexed for 10 seconds at 3,000 rpm.
Solid phase extraction was conducted using a Varian Bond Elute PLEXA PCX 1 mL columns placed on a vacuum manifold. Columns were activated by adding 1 mL of MeOH followed by 1 mL H2O and 1 mL of 2% phosphoric acid. All samples were allowed to drip by gravity flow. The extraction columns were then washed sequentially with 1 mL 2% phosphoric acid, 1 mL H2O, and 1 mL MeOH/AcCN (1/1) and eluted into a 10 × 75 mm glass test tube containing 50 μL of 25% formic acid in MeOH with 2 × 600 μL of 2% NH4OH in MeOH/AcCN (1/1). The liquid was then evaporated to dryness with nitrogen at 37°C, and 100 μL of mobile phase A was added and vortexed for 10 seconds at 3,000 rpm and transferred to LC autosampler vials at 4°C.
HPLC separation was conducted on a reverse phase C18 column (Varian Pursuit C18, 3 micron particle size; 100 mm × 2.0 mm) using a Shimadzu SIL-HTc controller with dual LC-20AD pumps and DGU-20A3 degasser. The separation was achieved using a gradient of Mobile Phase A: 0.1% Formic Acid and Mobile Phase B: 0.1% Formic Acid, 90% MeOH with a flow rate of 400 μL/min at 40°C over 10 minutes. MS/MS fragmentation was performed on an Applied Biosystems API 3200 instrument with a Turbo V Ion Spray ion source and Positive ion polarity.
To evaluate the in vivo pharmacokinetic properties of TAC, C57/BL6 female mice of 20 g body weight were dosed with 38 mg/kg TAC p.o. (equimolar dose to 25 mg/kg of ACT) or 25 mg/kg ACT i.v. via tail vein injection. TAC and ACT were solubilized in 1X PBS immediately before administration and dosed at 0.01 mL/g fasted body weight. Blood samples (two time points per animal, three animals per time point) were obtained via retro-orbital bleeding with Natelson pipettes at 0.5, 1, 2, 4, 8, and 24 hours after drug administration. The collected blood was then centrifuged for 4 minutes at 13,000 g. Plasma was immediately extracted with cold acetonitrile and stored at −80°C until LC/MS/MS analysis.
Noncompartmental plasma pharmacokinetic parameters for TAC prodrug and ACT after oral TAC or i.v ACT administrations were estimated using the sparse sampling option in WinNonlin Software version 4.1 (Pharsight Corp., Mountain View, Calif, USA). Briefly, the WinNonlin sparse sampling option applies the linear trapezoidal rule for area under the concentration-time curve (AUC) calculations and generates a standard error for the mean AUC estimate that accounts for correlations in the data resulting from repeated sampling of individual mice. Parameters of interest included the AUC from time 0 to the last measurable concentration (AUClast), observed peak concentration after oral administration (Cmax), estimated peak concentration after i.v. administration (C0), mean residence time to the last measurable concentration (MRTlast), and the half-life of the terminal phase (T1/2). To assess the multiphasic decline in plasma concentrations, an alpha (T1/2α) half-life was also estimated using a log-linear regression of the mean ACT concentrations through 2 hours after dosing.

[4] = system: L1210 cells; design: method as in PMID 6083417; conditions: published value, confirmed by MTS assay; cited from earlier work
[5] = system: P15 promoter methylation; experiment: p15INK4B methylation status (EpiTect Methyl qPCR) in L1210 cells; assay type: cell-based, Mouse; conditions: 48 hours
Method: Mouse leukemia cells (L1210) were purchased from ATCC. The published IC50 value for ACT (0.2 uM) was first confirmed using the Promega CellTiter MTS assay. […] Genomic DNA was isolated after 48 hours using the Sigma GenElute Genomic DNA Kit, including the RNase treatment step to ensure no RNA carryover. The methylation status of p15INK4B was determined using a predesigned primer set and the EpiTect Methyl qPCR Assays MethylScreen technology (Qiagen, Frederick, Md, USA).

[6] = oral film-coated formulation, 80 mg dose, cited from earlier work
[7] = system: global DNA methylation; experiment: Global methylation detection assay in mouse tissues; assay type: in vivo, C57BL6 mice; design: unit not given here; conditions: 5 days ACT 25 mg/kg or TAC 38 mg/kg p.o., dot blot
Method: 24 hours following drug administration, snap-frozen mouse tissues were homogenized and genomic DNA isolated using Promega's Wizard Genomic DNA Purification Kit. 100 ng of EcoRI linearized genomic DNA was spotted onto PVDF membrane. The membrane was air-dried and repermeabilized according to manufacturer's instructions. Nonspecific binding was blocked using 5% milk in PBS-T and washed twice in PBS-T for 5 minutes. The membrane was incubated with primary antibody (1 : 1000 anti-5-methylcytosine in PBS-T, Calbiochem) for 1 hour then washed four times for five minutes each with PBS-T. The membrane was incubated with the HRP-conjugated secondary antibody for 1 hour and washed four times for five minutes each with PBS-T. Signal intensity following ECL detection was quantitated using KODAK Image Station software. Assay results were confirmed using EpiGentek's Methylamp Global DNA Methylation Quantification Kit per manufacturer's instructions.
In an in vivo experiment designed to evaluate the effect of a prolonged administration of TAC on global methylation, TAC (38 mg/kg p.o.) or ACT (25 mg/kg i.p.) diluted in PBS was administered to C57BL6 mice every 24 hours for 5 consecutive days (four animals per group). […] The positive results in gut and spleen were confirmed using the EpiGentek's Methylamp Global DNA Methylation Quantification Kit.

[8] = LogP determination, shake-flask water/octanol; assay type: physicochemical; conditions: un-ionized, read-out: experimental LogP
Method: The OSIRIS Property Explorer software was used to generate initial cLogP values. […] The pH of the water was 2 units above the pKa of the compound, preventing ionization. The experiment was conducted using the shake-flask method, after allowing octanol and water to equilibrate for 24 hours at 25°C. The initial drug concentration in water was 0.2 mM. Tubes were rotated at a 45 degree angle for 10 minutes with a 3 second rotation. The test was performed in a constant environment of 20°C–25°C. Tubes were centrifuged at 1000 g for 10 minutes, and the octanol phase was extracted. The UV/Visible absorption spectrum was evaluated from 550 nm to 210 nm to determine the absorption maximum. The analyte concentration was determined and the LogP calculated: Log = log(concentration in octanol/concentration in water).

[9] = Solubility at various pH; assay type: physicochemical
Method: The solubility of TAC in comparison to ACT was evaluated at various pH. TAC and ACT were equally soluble at pH1 (40 mg/mL) and pH3 (25 mg/mL), while TAC was more soluble than ACT at pH5 (30 mg/mL versus 15 mg/mL) and pH7 (30 mg/mL versus 10 mg/mL). […] At pH 1, we observed a moderate hydrolysis of TAC (26%) to the mono- and diesters in the first 3 hours of incubation increasing to 60% after 6 hrs. However, after 24, 99% of TAC was hydrolyzed, including 46% to the parent compound, ACT.

[10] = female, C57/BL6, mouse, plasma, iv
[11] = tissue 24 hours after treatment

For Nc1ncn([C@@H]2O[C@H](CO)[C@@H](O)[C@H]2O)c(=O)n1 [ACT, 5-azacitidine], the “stability of azacitidine in solution” value [1] was “significant degradation”, the survival ([2]; azacitidine 25 mg/kg i.p. (maximum tolerated dose) daily for 5 days) was 17 days and the increased lifespan ([2]; azacitidine 25 mg/kg i.p. daily for 5 days) was 112%. It also gave a weight reduction ([2]; azacitidine 25 mg/kg i.p., L1210-bearing mice) of 16%, a T1/2α ([3]; data through 2 hours) of 0.32 h and a Cmax [3, 10] of 81.1 µM. It also gave an MRT last [3, 10] of 1.1 h, a C0 ([3]; female, C57/BL6, mouse, plasma, iv, estimated peak concentration) of 212 µM and a half-life ([3]; female, C57/BL6, mouse, plasma, iv, terminal phase) of 6.8 h. For the same compound, the AUC(0-t) ([3]; female, C57/BL6, mouse, plasma, iv, mean (standard error)) was 126 µM·h, the IC50 [4] was 200 nM and the “decrease of P15 promoter methylation” value ([5]; 0.1 uM ACT) was 39% (±3). For the same compound, the “decrease of P15 promoter methylation” value ([5]; 10 uM ACT) was 49% (±17), the bioavailability ([6]; four human subjects) was 17.4% and the mean plasma half-life ([6]; human) was 0.39 h. The “densitometry of methylation level, Gut Average” value ([7]; four animals) was 29, the “densitometry of methylation level, Spleen Average” value ([7]; four animals) was 50 and the “densitometry of methylation level, Gut.1” value [7, 11] was 37. For the same compound, the “densitometry of methylation level, Gut.2” value [7, 11] was 14, the “densitometry of methylation level, Gut.3” value [7, 11] was 34 and the “densitometry of methylation level, Gut.4” value [7, 11] was 33. For the same compound, the “densitometry of methylation level, Spleen.1” value [7, 11] was 54, the “densitometry of methylation level, Spleen.2” value [7, 11] was 71 and the “densitometry of methylation level, Spleen.3” value [7, 11] was 48. For the same compound, the “densitometry of methylation level, Spleen.4” value [7, 11] was 29, the logP [8] was -2.32 and the solubility ([9]; pH 1, pH1) was 40 mg/mL (≈ 164 mM). It also gave a solubility ([9]; pH 3, pH3) of 25 mg/mL (≈ 102 mM), a solubility ([9]; pH 5, pH5) of 15 mg/mL (≈ 61.4 mM) and a solubility ([9]; pH 7, pH7) of 10 mg/mL (≈ 40.9 mM).
